The text below walks through data of patent publication US10781204B2, “TYK2 inhibitors and uses thereof” (Nimbus Lakshmi, Inc., priority 2015, dated 2020).

For orientation: Ki means the dissociation constant of the complex between target and ligand, obtained from inhibition or displacement. In general, EC50 refers to the concentration needed to bring the measured effect to its halfway point.

For test [1], the target named is TYK2 (Homo sapiens (Human), UniProt P29597). Put plainly: Tyk2 radioactive kinase assay. The note with it: ATP 10 μM. In kind it is biochemical. The procedure, abridged: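 Recombinant human TYK2 (Invitrogen) was mixed with 20 μM peptide substrate in a buffer of 20 mM Hepes pH 7.5, 10 mM MgCl2, 1 mM EGTA, 0.02% Brij35, 0.02 mg/mL BSA, 0.1 mM […], 2 mM DTT and 1% DMSO, and compounds in DMSO were added. Adding ^33P-ATP (10 μM ATP) started the reaction, which ran 120 min at room temperature. Mixtures were then spotted onto P81 ion-exchange paper, washed thoroughly in 0.75% phosphoric acid, and counted for radioactivity.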
TYK2, sequence (P29597 whole entry): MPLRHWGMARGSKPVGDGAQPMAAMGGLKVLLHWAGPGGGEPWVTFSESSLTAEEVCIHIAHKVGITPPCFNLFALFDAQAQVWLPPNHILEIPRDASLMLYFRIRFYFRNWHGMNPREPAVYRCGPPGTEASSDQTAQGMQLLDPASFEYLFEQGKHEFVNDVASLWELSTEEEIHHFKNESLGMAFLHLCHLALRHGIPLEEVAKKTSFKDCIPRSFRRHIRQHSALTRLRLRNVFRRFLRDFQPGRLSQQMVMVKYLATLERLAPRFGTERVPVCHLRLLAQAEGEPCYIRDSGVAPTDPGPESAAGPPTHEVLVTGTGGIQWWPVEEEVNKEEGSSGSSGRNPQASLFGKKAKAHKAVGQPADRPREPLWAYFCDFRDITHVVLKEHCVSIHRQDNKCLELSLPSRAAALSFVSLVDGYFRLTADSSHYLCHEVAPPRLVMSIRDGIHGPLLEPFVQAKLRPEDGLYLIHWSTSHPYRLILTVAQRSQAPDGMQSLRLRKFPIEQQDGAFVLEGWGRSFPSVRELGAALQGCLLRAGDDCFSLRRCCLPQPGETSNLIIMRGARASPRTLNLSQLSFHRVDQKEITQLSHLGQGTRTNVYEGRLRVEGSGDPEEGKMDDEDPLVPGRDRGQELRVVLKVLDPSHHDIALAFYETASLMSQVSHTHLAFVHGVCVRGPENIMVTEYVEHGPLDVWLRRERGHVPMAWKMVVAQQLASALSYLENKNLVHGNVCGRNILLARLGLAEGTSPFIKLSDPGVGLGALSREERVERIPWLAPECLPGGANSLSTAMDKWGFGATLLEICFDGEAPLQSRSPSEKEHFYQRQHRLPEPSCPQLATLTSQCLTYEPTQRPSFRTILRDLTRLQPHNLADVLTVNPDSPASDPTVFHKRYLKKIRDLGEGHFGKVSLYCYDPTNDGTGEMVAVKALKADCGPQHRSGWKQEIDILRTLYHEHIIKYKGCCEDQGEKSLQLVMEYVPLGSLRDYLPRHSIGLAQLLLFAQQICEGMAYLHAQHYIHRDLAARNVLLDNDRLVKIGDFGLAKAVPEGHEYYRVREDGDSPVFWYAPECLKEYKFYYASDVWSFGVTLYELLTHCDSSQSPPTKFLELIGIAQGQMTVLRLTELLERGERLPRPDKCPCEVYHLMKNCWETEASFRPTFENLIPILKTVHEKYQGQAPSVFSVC

In test [2] the target is JAK2 (Homo sapiens (Human), UniProt O60674). Put plainly: JAK2 radioactive kinase assay. In kind it is biochemical. The settings on record: ATP 10 μM. In short, it runs like this:
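Radiometric assay in Hepes pH 7.5, MgCl2, EGTA, Brij35, BSA, DTT, 1% DMSO, with 10 μM [33P]ATP, 120 min at room temp; P81 paper capture and counting. […]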

In test [3] the test system is Tyk2-pSTAT4 (IL-12 induced pSTAT4). The test is described as follows: IL-12 induced pSTAT4 in human PBMC. In kind it is cell-based. The settings on record: 1.7 ng/mL IL-12, 30 minutes. In short, it runs like this:
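pSTAT4 and total STAT4 quantified by MSD in cell lysates after 30 minutes of 1.7 ng/mL IL-12 stimulation. Beforehand, compound (0.1% DMSO final) sat 1 hr at 37 C on 200,000 thawed buffy-coat PBMC per well in serum-containing medium.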

For test [4], the system named is JAK2-pSTAT5 (GM-CSF induced pSTAT5). The test is described as follows: GM-CSF induced pSTAT5 in human PBMC. In kind it is cell-based. The settings on record: Homo sapiens, PBMC, 20 min, 5 ng/mL GM-CSF. The procedure, abridged: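 Thawed human PBMC, 200,000 per well in serum-containing medium, were preincubated 1 hr at 37 C with compound in 0.1% DMSO. GM-CSF at 5 ng/mL final was added for 20 minutes, then pSTAT5 and total STAT5 in lysates were measured by MSD immunoassay.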

JAK2, sequence (O60674 whole entry): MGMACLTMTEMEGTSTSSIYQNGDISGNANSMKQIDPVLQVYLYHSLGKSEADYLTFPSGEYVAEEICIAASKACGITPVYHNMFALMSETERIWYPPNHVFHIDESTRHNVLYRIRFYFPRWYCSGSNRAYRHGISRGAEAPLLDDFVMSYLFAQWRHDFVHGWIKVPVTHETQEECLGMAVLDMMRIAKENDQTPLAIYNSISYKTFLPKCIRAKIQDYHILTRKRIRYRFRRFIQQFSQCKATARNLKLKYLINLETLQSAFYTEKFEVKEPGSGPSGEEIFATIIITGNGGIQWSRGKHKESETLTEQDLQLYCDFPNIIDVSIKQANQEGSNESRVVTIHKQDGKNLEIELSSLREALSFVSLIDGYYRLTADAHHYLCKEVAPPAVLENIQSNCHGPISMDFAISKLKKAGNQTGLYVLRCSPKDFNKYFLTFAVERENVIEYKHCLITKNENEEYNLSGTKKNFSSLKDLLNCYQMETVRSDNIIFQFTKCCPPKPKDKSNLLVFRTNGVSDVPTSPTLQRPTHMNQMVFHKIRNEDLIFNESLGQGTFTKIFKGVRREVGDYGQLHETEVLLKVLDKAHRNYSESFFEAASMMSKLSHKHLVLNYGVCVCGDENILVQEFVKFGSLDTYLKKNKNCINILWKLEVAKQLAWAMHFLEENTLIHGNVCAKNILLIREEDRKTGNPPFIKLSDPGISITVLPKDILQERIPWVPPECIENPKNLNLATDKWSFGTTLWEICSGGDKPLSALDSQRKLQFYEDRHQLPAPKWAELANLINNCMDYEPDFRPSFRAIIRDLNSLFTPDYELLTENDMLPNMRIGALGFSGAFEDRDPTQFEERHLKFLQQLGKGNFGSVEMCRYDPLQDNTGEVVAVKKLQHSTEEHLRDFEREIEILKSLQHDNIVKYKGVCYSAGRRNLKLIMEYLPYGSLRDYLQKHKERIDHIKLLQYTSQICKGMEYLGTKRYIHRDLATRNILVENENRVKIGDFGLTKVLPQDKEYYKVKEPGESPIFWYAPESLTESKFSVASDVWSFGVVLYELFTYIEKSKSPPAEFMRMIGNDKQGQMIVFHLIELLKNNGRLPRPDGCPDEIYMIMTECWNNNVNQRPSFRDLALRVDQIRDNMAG

With `[2H]C1([2H])NC(=O)c2c(-n3ccc(N4C([2H])([2H])CC(O)(C([2H])([2H])[2H])C4([2H])[2H])n3)cc(-c3c(F)cccc3C#N)nc21` (stereo not drawn) [I-200, 3-fluoro-2-(4-(3-(3-hydroxy-3-(methyl-d3)pyrrolidin-1-yl-2,2,5,5-d4)-1H-pyrazol-1-yl)-5-oxo-6,7-dihydro-5H-pyrrolo[3,4-b]pyridin-2-yl-7,7-d2)benzonitrile], the Ki fell in the range of 0.0001 to 0.01 µM in test [1] and 0.01 to 0.1 µM in test [2]. In addition, the EC50 in test [3] (Homo sapiens, PBMC, 0.5 h) fell in the range of 0.03 to 0.1 µM; in test [4], 0.1 to 2 µM.

In the case of `N#Cc1cccc(F)c1-c1cc(-n2ccc(N3CCC[C@H](O)C3)n2)c2c(n1)CNC2=O` [I-70, (S)-3-fluoro-2-(4-(3-(3-hydroxypiperidin-1-yl)-1H-pyrazol-1-yl)-5-oxo-6,7-dihydro-5H-pyrrolo[3,4-b]pyridin-2-yl)benzonitrile], the Ki in test [1] and in test [2] was 0.0001 to 0.01 µM throughout. In addition, the EC50 in test [3] (Homo sapiens, PBMC, 0.5 h) was in the range of 0.1 to 2 µM; in test [4], 0.1 to 2 µM.

With `N#Cc1cccc(F)c1-c1cc(-n2ccc(N3CCCC(O)C3)n2)c2c(n1)CNC2=O` (stereo not drawn) [I-65, 3-fluoro-2-(4-(3-(3-hydroxypiperidin-1-yl)-1H-pyrazol-1-yl)-5-oxo-6,7-dihydro-5H-pyrrolo[3,4-b]pyridin-2-yl)benzonitrile], the Ki in test [1] was in the range of 0.0001 to 0.01 µM; in test [2], 0.01 to 0.1 µM. The EC50 in test [3] (Homo sapiens, PBMC, 0.5 h) lay in the range of 0.03 to 0.1 µM; in test [4], 0.1 to 2 µM.

For the compound `[2H]C1([2H])NC(=O)c2c(-n3ccc(N4C([2H])([2H])C[C@@](O)(C([2H])([2H])[2H])C4([2H])[2H])n3)cc(-c3c(F)cccc3C#N)nc21` [I-206, (S)-3-fluoro-2-(4-(3-(3-hydroxy-3-(methyl-d3)pyrrolidin-1-yl-2,2,5,5-d4)-1H-pyrazol-1-yl)-5-oxo-6,7-dihydro-5H-pyrrolo[3,4-b]pyridin-2-yl-7,7-d2)benzonitrile], the Ki fell in the range of 0.0001 to 0.01 µM in test [1] and 0.01 to 0.1 µM in test [2]. Moreover, the EC50 was in the range of 0.03 to 0.1 µM in test [3] (Homo sapiens, PBMC, 0.5 h) and 0.1 to 2 µM in test [4].

Regarding `N#Cc1cccc(F)c1-c1cc(-n2ccc(N3CCCC(C#N)C3)n2)c2c(n1)CNC2=O` (stereo not drawn) [I-95, 1-(1-(2-(2-cyano-6-fluorophenyl)-5-oxo-6,7-dihydro-5H-pyrrolo[3,4-b]pyridin-4-yl)-1H-pyrazol-3-yl)piperidine-3-carbonitrile], the results for the Ki in test [1] and in test [2] were 0.0001 to 0.01 µM and 0.01 to 0.1 µM, respectively. In addition, the EC50 is 0.03 to 0.1 µM in test [3] (Homo sapiens, PBMC, 0.5 h) and 0.1 to 2 µM in test [4].

For `N#Cc1cccc(F)c1-c1cc(-n2cc3c(n2)CNC3)c2c(n1)CNC2=O` [I-124, 2-(4-(5,6-dihydropyrrolo[3,4-c]pyrazol-2 (4H)-yl)-5-oxo-6,7-dihydro-5H-pyrrolo[3,4-b]pyridin-2-yl)-3-fluorobenzonitrile], the Ki in test [1] fell in the range of 0.01 to 0.1 µM; in test [2], 0.1 to 1 µM. In addition, the EC50 in test [3] (Homo sapiens, PBMC, 0.5 h) was greater than 2 µM; in test [4], greater than 2 µM.

Take `CS(=O)(=O)NC1CCN(c2ccn(-c3cc(-c4c(F)cccc4C#N)nc4c3C(=O)NC4)n2)C1` (stereo not drawn) [I-120, N-(1-(1-(2-(2-cyano-6-fluorophenyl)-5-oxo-6,7-dihydro-5H-pyrrolo[3,4-b]pyridin-4-yl)-1H-pyrazol-3-yl)pyrrolidin-3-yl)methanesulfonamide]: the Ki in test [1] and in test [2] was 0.0001 to 0.01 µM in each case. Moreover, the EC50 in test [3] (Homo sapiens, PBMC, 0.5 h) fell in the range of 0.1 to 2 µM; in test [4] it was 0.1 to 2 µM.

As to `CC1(C)[C@H](O)CCN1c1ccn(-c2cc(-c3c(F)cccc3C#N)nc3c2C(=O)NC3)n1` [I-204, (R)-3-fluoro-2-(4-(3-(3-hydroxy-2,2-dimethylpyrrolidin-1-yl)-1H-pyrazol-1-yl)-5-oxo-6,7-dihydro-5H-pyrrolo[3,4-b]pyridin-2-yl)benzonitrile], the Ki in test [1] lay within 0.0001 to 0.01 µM; in test [2], 0.01 to 0.1 µM. In addition, the EC50 in test [3] (Homo sapiens, PBMC, 0.5 h) is 0.03 to 0.1 µM; in test [4], greater than 2 µM.

`N#Cc1cccc(F)c1-c1cc(-n2cc(F)c(N3CC[C@H](O)C3)n2)c2c(n1)CNC2=O` [I-190, (S)-3-fluoro-2-(4-(4-fluoro-3-(3-hydroxypyrrolidin-1-yl)-1H-pyrazol-1-yl)-5-oxo-6,7-dihydro-5H-pyrrolo[3,4-b]pyridin-2-yl)benzonitrile]: the Ki in test [1] lay in the range of 0.0001 to 0.01 µM; in test [2], 0.01 to 0.1 µM. The EC50 in test [3] (Homo sapiens, PBMC, 0.5 h) is 0.1 to 2 µM; in test [4], 0.1 to 2 µM.

`N#Cc1cccc(F)c1-c1cc(-n2ccc(N3CC[C@@H](O)[C@@H](O)C3)n2)c2c(n1)CNC2=O` [I-137, 2-(4-(3-((3S,4R)-3,4-dihydroxypiperidin-1-yl)-1H-pyrazol-1-yl)-5-oxo-6,7-dihydro-5H-pyrrolo[3,4-b]pyridin-2-yl)-3-fluorobenzonitrile]: the Ki in test [1] and in test [2] was 0.0001 to 0.01 µM throughout. The results for the 50% effective concentration (EC50) in test [3] and in test [4] were 0.1 to 2 µM and greater than 2 µM, respectively.

As for `CCNC(=O)[C@H]1CCCN(c2ccn(-c3cc(-c4c(F)cccc4C#N)nc4c3C(=O)NC4)n2)C1` [I-171, (S)-1-(1-(2-(2-cyano-6-fluorophenyl)-5-oxo-6,7-dihydro-5H-pyrrolo[3,4-b]pyridin-4-yl)-1H-pyrazol-3-yl)-N-ethylpiperidine-3-carboxamide], the Ki was 0.0001 to 0.01 µM in test [1] and 0.01 to 0.1 µM in test [2]. In addition, the EC50 in test [3] (Homo sapiens, PBMC, 0.5 h) is 0.1 to 2 µM; in test [4], greater than 2 µM.

For `[2H]C1([2H])NC(=O)c2c(-n3ccc(N4C([2H])([2H])C[C@](O)(C([2H])([2H])[2H])C4([2H])[2H])n3)cc(-c3c(F)cccc3C#N)nc21` [I-207, (R)-3-fluoro-2-(4-(3-(3-hydroxy-3-(methyl-d3)pyrrolidin-1-yl-2,2,5,5-d4)-1H-pyrazol-1-yl)-5-oxo-6,7-dihydro-5H-pyrrolo[3,4-b]pyridin-2-yl-7,7-d2)benzonitrile], the Ki in test [1] fell in the range of 0.0001 to 0.01 µM; in test [2], 0.01 to 0.1 µM. In addition, the EC50 in test [3] (Homo sapiens, PBMC, 0.5 h) was in the range of 0.03 to 0.1 µM; in test [4] it was 0.1 to 2 µM.

For `C[C@@]1(O)CCN(c2ccn(-c3cc(-c4c(F)cccc4C#N)nc4c3C(=O)NC4)n2)C1` [I-92, (R)-3-fluoro-2-(4-(3-(3-hydroxy-3-methylpyrrolidin-1-yl)-1H-pyrazol-1-yl)-5-oxo-6,7-dihydro-5H-pyrrolo[3,4-b]pyridin-2-yl)benzonitrile], the values for the Ki in test [1] and in test [2] were 0.0001 to 0.01 µM and 0.01 to 0.1 µM, respectively. Moreover, the EC50 lay in the range of 0.03 to 0.1 µM in test [3] (Homo sapiens, PBMC, 0.5 h) and 0.1 to 2 µM in test [4].

With `CN1CCN(c2ccn(-c3cc(-c4c(F)cccc4C#N)nc4c3C(=O)NC4)n2)CC1` [I-6, 3-fluoro-2-(4-(3-(4-methylpiperazin-1-yl)-1H-pyrazol-1-yl)-5-oxo-6,7-dihydro-5H-pyrrolo[3,4-b]pyridin-2-yl)benzonitrile], the Ki in test [1] and in test [2] was 0.0001 to 0.01 µM in each case. The EC50 in test [3] (Homo sapiens, PBMC, 0.5 h) is 0.1 to 2 µM; in test [4] it was greater than 2 µM.

As to `N#Cc1cccc(F)c1-c1cc(-n2ccc(N3CCC[C@H](N4CCOCC4)C3)n2)c2c(n1)CNC2=O` [I-157, (S)-3-fluoro-2-(4-(3-(3-morpholinopiperidin-1-yl)-1H-pyrazol-1-yl)-5-oxo-6,7-dihydro-5H-pyrrolo[3,4-b]pyridin-2-yl)benzonitrile], the Ki in test [1] lay in the range of 0.0001 to 0.01 µM; in test [2] it was 0.01 to 0.1 µM. For the same compound, the EC50 was 0.1 to 2 µM in test [3] (Homo sapiens, PBMC, 0.5 h) and greater than 2 µM in test [4].

With `CO[C@H]1CCN(c2ccn(-c3cc(-c4c(F)cccc4C#N)nc4c3C(=O)NC4)n2)C[C@@H]1O` [I-210, 3-fluoro-2-(4-(3-((3S,4S)-3-hydroxy-4-methoxypiperidin-1-yl)-1H-pyrazol-1-yl)-5-oxo-6,7-dihydro-5H-pyrrolo[3,4-b]pyridin-2-yl)benzonitrile], the Ki in test [1] fell in the range of 0.0001 to 0.01 µM; in test [2], 0.01 to 0.1 µM. For the same compound, the EC50 in test [3] (Homo sapiens, PBMC, 0.5 h) was in the range of 0.03 to 0.1 µM; in test [4], 0.1 to 2 µM.

For `N#Cc1cccc(F)c1-c1cc(-n2ccc(N3CC[C@](O)(C(=O)N4CCCC4)C3)n2)c2c(n1)CNC2=O` [I-198, (R)-3-fluoro-2-(4-(3-(3-hydroxy-3-(pyrrolidine-1-carbonyl)-pyrrolidin-1-yl)-1H-pyrazol-1-yl)-5-oxo-6,7-dihydro-5H-pyrrolo[3,4-b]pyridin-2-yl)benzonitrile], the Ki in test [1] was 0.0001 to 0.01 µM; in test [2], 0.01 to 0.1 µM. Besides, the EC50 was 0.1 to 2 µM in test [3] (Homo sapiens, PBMC, 0.5 h) and greater than 2 µM in test [4].

As for `N#Cc1cccc(F)c1-c1cc(-n2cc(F)c(N3CC[C@@H](O)C3)n2)c2c(n1)CNC2=O` [I-189, (R)-3-fluoro-2-(4-(4-fluoro-3-(3-hydroxypyrrolidin-1-yl)-1H-pyrazol-1-yl)-5-oxo-6,7-dihydro-5H-pyrrolo[3,4-b]pyridin-2-yl)benzonitrile], the Ki in test [1] is 0.0001 to 0.01 µM; in test [2] it was 0.01 to 0.1 µM. In addition, the EC50 in test [3] (Homo sapiens, PBMC, 0.5 h) was 0.1 to 2 µM; in test [4], greater than 2 µM.
